Data on one compound can be found in paper PMC12750388, “Coumarin-1,2,3-Triazole Conjugates as Molecular Scaffolds for the Selective Induction of ROS-Driven Apoptosis in Cancer Cells in the Development of Pyruvate Kinase M2 Inhibitors” (ACS Omega, 2025).

The subject of this test is SCC-9 cells. As to the kind of experiment: ROS-Glo H2O2 assay. It is filed as cell-based, human. As to conditions: SCC-9, 2 × IC50, 12 and 24 h. On the procedure: The production of reactive oxygen species (ROS) was assessed by the detection of hydrogen peroxide (H2O2) using the ROS-Glo H2O2 assay kit (Promega Corporation, Madison, WI, USA; G8820). […] A plate with wells without cells was used as a control. Cells and cell-free wells remained in treatment at times of interest, and 2 h before completion of the times, well volumes were removed to reduce to 40 μL per well. Then the positive control of menadione (Sigma-Aldrich Co., St. Louis, MO, USA), a polycyclic aromatic ketone based on 1,4-naphthoquinone, was used to treat its respective well, and H2O2 substrate from the kit was added for all treatments, followed by the incubation of the plate for the remaining 2 h. Then the detection solution was added, and the plates remained at room temperature for 20 min, following the reading in the TD 20/20 luminometer (Turner Designs, Sunnyvale, CA, USA). The reading of bioluminescence detected is indicated as arbitrary units (a.u.). Additionally, the cell viability was assessed through pretreatment of cells with 10 mM N-acetyl-L-cysteine (NAC) (Sigma-Aldrich Co., St. Louis, MO, USA) for 2 h. […] At the end of the time, the MTT cell viability assay was performed.

As for `O=C1C=C(OCc2cn(CCCOc3cc(=O)oc4ccccc34)nn2)C(=O)c2ccccc21` [Compound 7f, 2-((1-(3-((2-Oxo-2H-chromen-4-yl)oxy)propyl)-1H-1,2,3-triazol-4-yl)methoxy)naphthalene-1,4-dione], the “production of hydrogen peroxide (H2O2) / ROS” value is “significant increase in ROS after 12 and 24 h”.
